# Measurements taken from paper PMC6675714 (Cancer Medicine, 2019).
# Entries after “also recorded” stand apart in the source; their conditions may differ.
# How the values were obtained:
# [1] = Histopathology of organs and tissues after the trial; type: in vivo, NOD.CB17‐Prkdc scid/J mice; design: key to Histopathological finding: Lungs / Histopathological finding: Thymus / Histopathological finding: Kidneys / Histopathological finding: Gallbladder / Histopathological finding: Stomach / Histopathological finding: Cecum / Histopathological finding: Colon / Histopathological finding: Mesenteric lymph node / Histopathological finding: Salivary glands / Histopathological finding: Submandibular lymph node / Histopathological finding: Uterus / Histopathological finding: Cervix / Histopathological finding: Vagina / Histopathological finding: Testes/epididymis / Histopathological finding: Prostate / Histopathological finding: Seminal vesicles / Histopathological finding: Urinary bladder / Histopathological finding: Adrenals / Histopathological finding: Ovaries / Histopathological finding: Oviducts / Histopathological finding: Trachea / Histopathological finding: Esophagus / Histopathological finding: Thyroid / Histopathological finding: Parathyroid / Histopathological finding: Mammary glands / Histopathological finding: Bones (femur, tibia, sternum, vertebrae) / Histopathological finding: Stifle joint / Histopathological finding: Skeletral muscles (hind limb, spine) / Histopathological finding: Nerves (hind limb, spine) / Histopathological finding: Spinal cord / Histopathological finding: Oral cavity / Histopathological finding: Teeth / Histopathological finding: Nasal cavity / Histopathological finding: Eyes / Histopathological finding: Harderian gland / Histopathological finding: Bones (skull) / Histopathological finding: Pituitary / Histopathological finding: Brain / Histopathological finding: Ears / Histopathological finding: Heart: N: Normal
# Description: At the end of the intervention trial, female and male NOD.CB17‐Prkdc scid/J mice bearing subcutaneous Caki‐1 tumors were euthanized, blood was collected by intracardiac puncture and the carcasses were perfused with 4% PFA. Lung, kidney, heart, spleen, lymphatic tissue were collected, mounted in paraffin, sectioned and stained by Hemotoxilyn & Eosin. Samples were imaged at 20× under light microscope for analysis.
# [2] = Plasma chemistry parameters after the trial; type: in vivo, tumor bearing NOD-SCID mice
# Method: Supplementary Table 1. Summary of plasma chemistry parameters metabolic analytes for three specimens (collected 72h after the last dose of 10mg/kg/72h at the end of a 21 day trial) from 3 tumor bearing NOD-SCID (NOD/LtSz-Prkdscid/j. The study criteria reflect pathological criterion used in clinical studies. Metabolic markers were quantified from freshly isolated plasma and compared to reference range.
# [3] = system: xenograft Caki‐1 tumors; assay: Xenograft renal cancer intervention (efficacy) trial; type: in vivo, NOD.CB17‐Prkdc SCID/J mice; conditions: 10 mg/kg/72h ip
# Description: Tissue samples were processed as described above and analyzed for Ru and Au content using ICP‐MS
# Percent of change in tumor burden in a cohort of 3 females and 3 males NOD.CB17‐Prkdc scid/J mice inoculated subcutaneously with 5 × 10^6 Caki‐1 cells. The treatment started when tumors were palpable (~5 mm diameter). […] (A) Representative histological samples of tumors resected from each treatment group.
# [4] = Body and organ weights at necropsy after the trial; type: in vivo, NOD.CB17‐Prkdc scid/J mice
# [5] = system: Caki‐1 xenograft tumors; assay: Protein expression in tumor lysates (Proteome Profiler arrays); type: in vivo, NOD.CB17‐Prkdc SCID/J mice; conditions: tumor lysate, 21‐day trial, vs vehicle
# Method: Whole tumors were extracted at the trial endpoint and lysed. Before application to the array, protein concentration was determined by BCA. Then 150 µg of lysate was incubated for 24 hours with the Proteome Profiler Human XL Oncology Array (ARY026, R&D Systems) and Human Cell Stress Array (ARY018, R&D Systems). The relative expression levels of the proteases were determined according to the manufacturer's protocol, and signal intensities were compared using HLImage^++ software.
# [6] = plasma 72h after last dose of 10mg/kg/72h, 21 day trial
# [7] = 21 day course once/72h, mean and SEM, n = 3
# [8] = Supplementary Table 3, end of trial
substance,measurement,setting,value
[Cl2(p‐cymene)Ru(μ‐dppm)Au(IMes)]ClO4 [RANCE‐1],"Histological changes in liver, spleen, or kidney tissue","[1]; H&E, end of the 21 day efficacy trial",does not induce histological changes
same,Histopathological finding: Adrenals,[1]; end of 21 day trial,N
same,"Histopathological finding: Bone marrow (femur, tibia, sternum, vertebrae)",[1]; end of 21 day trial,Moderate diffuse granulocytic hyperplasia; Moderate diffused Erythroid hypoplasia.
same,"Histopathological finding: Bones (femur, tibia, sternum, vertebrae)",[1]; end of 21 day trial,N
same,Histopathological finding: Bones (skull),[1]; end of 21 day trial,N
same,Histopathological finding: Brain,[1]; end of 21 day trial,N
same,Histopathological finding: Cecum,[1]; end of 21 day trial,N
same,Histopathological finding: Cervix,[1]; end of 21 day trial,N
same,Histopathological finding: Colon,[1]; end of 21 day trial,N
same,"Histopathological finding: Duodenum, jejunum, ileum",[1]; end of 21 day trial,"Mild peritonitis and serositis, neutrophilic and histiocytic, multifocal."
same,Histopathological finding: Ears,[1]; end of 21 day trial,N
same,Histopathological finding: Esophagus,[1]; end of 21 day trial,N
same,Histopathological finding: Eyes,[1]; end of 21 day trial,N
same,Histopathological finding: Gallbladder,[1]; end of 21 day trial,N
same,Histopathological finding: Harderian gland,[1]; end of 21 day trial,N
same,Histopathological finding: Heart,[1]; end of 21 day trial,N
same,Histopathological finding: Kidneys,[1]; end of 21 day trial,N
same,Histopathological finding: Liver,[1]; end of 21 day trial,Minimal extramedullary hematopoiesis. Minimal hepatocyte hypertrophy. Mild vacuolar change (microvesicular)
same,Histopathological finding: Lungs,[1]; end of 21 day trial,N
same,Histopathological finding: Mammary glands,[1]; end of 21 day trial,N
same,Histopathological finding: Mesenteric lymph node,[1]; end of 21 day trial,N
same,Histopathological finding: Nasal cavity,[1]; end of 21 day trial,N
same,"Histopathological finding: Nerves (hind limb, spine)",[1]; end of 21 day trial,N
same,Histopathological finding: Oral cavity,[1]; end of 21 day trial,N
same,Histopathological finding: Ovaries,[1]; end of 21 day trial,N
same,Histopathological finding: Oviducts,[1]; end of 21 day trial,N
same,Histopathological finding: Pancreas,[1]; end of 21 day trial,"Minimal peritonitis, neutrophilic and histiocytic, multifocal"
same,Histopathological finding: Parathyroid,[1]; end of 21 day trial,N
same,Histopathological finding: Pituitary,[1]; end of 21 day trial,N
same,Histopathological finding: Prostate,[1]; end of 21 day trial,N
same,Histopathological finding: Salivary glands,[1]; end of 21 day trial,N
same,Histopathological finding: Seminal vesicles,[1]; end of 21 day trial,N
same,"Histopathological finding: Skeletral muscles (hind limb, spine)",[1]; end of 21 day trial,N
same,Histopathological finding: Spinal cord,[1]; end of 21 day trial,N
same,Histopathological finding: Spleen,[1]; end of 21 day trial,Mild increase in extramedullary hematopoiesis with granulocyte hyperplasia.
same,Histopathological finding: Stifle joint,[1]; end of 21 day trial,N
same,Histopathological finding: Stomach,[1]; end of 21 day trial,N
same,Histopathological finding: Submandibular lymph node,[1]; end of 21 day trial,N
same,Histopathological finding: Teeth,[1]; end of 21 day trial,N
same,Histopathological finding: Testes/epididymis,[1]; end of 21 day trial,N
same,Histopathological finding: Thymus,[1]; end of 21 day trial,N
same,Histopathological finding: Thyroid,[1]; end of 21 day trial,N
same,Histopathological finding: Trachea,[1]; end of 21 day trial,N
same,Histopathological finding: Urinary bladder,[1]; end of 21 day trial,N
same,Histopathological finding: Uterus,[1]; end of 21 day trial,N
same,Histopathological finding: Vagina,[1]; end of 21 day trial,N
same,Adverse effects / pathological complications on histological evaluation,"[1]; forty‐seven organ and tissue types, after 21 days of treatment",no signs of pathological complications; also recorded: no significant adverse effects
same,"Clinical chemistry, treated vs control animals",[2]; end of trial,no differences
same,Kidney health indicators,[2]; end of trial,within normal values
same,DBIL,[2]; [6],0.033 mg/dL
same,GGT,[2]; [6],0 U/L
same,IBIL,[2]; [6],0.2 mg/dL
same,TCO2,[2]; [6],18 mEq/L
same,Anion Gap,"[2]; plasma 72h after last dose of 10mg/kg/72h, 21 day trial, marked *▴",37.63
same,CREA,"[2]; plasma 72h after last dose of 10mg/kg/72h, 21 day trial, reference range 0.2-0.5",0.117 mg/dL
same,TBIL,"[2]; plasma 72h after last dose of 10mg/kg/72h, 21 day trial, reference range 0.2-0.6",0.23 mg/dL
same,GLOB,"[2]; plasma 72h after last dose of 10mg/kg/72h, 21 day trial, reference range 1.7-2.2",2.63 g/dL
same,ALB,"[2]; plasma 72h after last dose of 10mg/kg/72h, 21 day trial, reference range 2.4-4.3",2.57 g/dL
same,ALT,"[2]; plasma 72h after last dose of 10mg/kg/72h, 21 day trial, reference range 27-195",170.66 U/L
same,AST,"[2]; plasma 72h after last dose of 10mg/kg/72h, 21 day trial, reference range 54-77",394.67 U/L
same,CHOL,"[2]; plasma 72h after last dose of 10mg/kg/72h, 21 day trial, reference range 55-169",87.67 mg/dL
same,TRIG,"[2]; plasma 72h after last dose of 10mg/kg/72h, 21 day trial, reference range 67-289, marked *▾",116 mg/dL
same,ALP,"[2]; plasma 72h after last dose of 10mg/kg/72h, 21 day trial, reference range 105-370, marked *▾",39.33 U/L
same,Cl,"[2]; plasma 72h after last dose of 10mg/kg/72h, 21 day trial, reference range 111-134",106 mEq/L
same,GLU,"[2]; plasma 72h after last dose of 10mg/kg/72h, 21 day trial, reference range 172-372, marked *▾",165 mg/dL
same,Weight and well‐being during the trial,[3]; 21 days,no significant change in weight or any decline in the well‐being
same,Tumor burden after treatment,"[3]; 21 days of treatment, total of 7 doses",no change in tumor burden
same,Average weight: Average Kidney,[4]; [7],0.17 ± 0.06 g
same,Average weight: Body,[4]; [7],21.31 ± 5.1 g
same,Average weight: Heart,[4]; [7],0.11 ± 0.05 g
same,Average weight: Liver,[4]; [7],1.15 ± 0.37 g
same,Average weight: Spleen,[4]; [7],0.04 ± 0.017 g
same,Body weight,[4]; [8],18.731 g
same,Heart weight,[4]; [8],0.078 g
same,Left Kidney weight,[4]; [8],0.148 g
same,Liver weight,[4]; [8],0.974 g
same,Right Kidney weight,[4]; [8],0.140 g
same,Spleen weight,[4]; [8],0.035 g
same,"Total body weight or organ weight, treated vs control mice",[4]; end of the trial,no notable difference
same,CCL7 and CCL8 levels,[5],decrease
same,Expression of CapG protein,[5],suppressed
same,"Expression of HIF‐1a, ICAM, VE‐Cadherin, and VCAM‐1",[5],significantly decreased
same,"Expression of growth factors VEGF, PDGF, FGF, EGFR, and HGRF",[5],Significant reduction; also recorded: decrease
same,Expression of immune factors IL‐2R and GM‐CSF,[5],increase
same,M‐CSF expression,[5],increase
same,"Prometastatic factors CtsB, CtsS, FoxC2, MMP‐2, MMP‐3, MMP‐8, ADAM8, and ADAMP9",[5],significant decrease
